The results in this text go back to PubChem BioAssay (NCI).

What all share (assay): inhibition of tumour cell growth, NCI panel, 48 h
The test system of experiment [1] is HOP-92 NSCLC.
Experiment [2] has as its system NCI-H23 lung.
For experiment [3], the system named is NCI-H460 lung.
The test system of experiment [4] is OVCAR-3 ovarian.
Experiment [5] concerns PC-3 prostate.
Experiment [6] relates to SF-295 CNS.
Experiment [7] has as its system SK-MEL-5 melanoma.
Experiment [8] concerns SK-OV-3 ovarian.
Experiment [9] concerns HCC-2998 colon.
For experiment [10], the system named is HL-60(TB) leukemia.

Molecules are shown by their SMILES.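 How tested: cells in 96-well plates exposed to compound for 48 hours at five concentrations. Here, GI50 denotes the concentration required for 50% inhibition of growth. TGI marks complete inhibition of growth.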

On to `Cc1csc2[n+]1-c1ccccc1N(C(=O)Nc1ccccc1)C(C)C2` (configuration not stated), for which the GI50 was 41.7 µM in [1]; 35.8 µM in experiment [2]; 81 µM in [3]; above 100 µM in experiment [4]; 59.1 µM in [5]; above 100 µM in experiment [6]. For the same molecule, the GI50 in experiment [7] was 42.6 µM. Further, the TGI in [1], in experiment [2], in experiment [3], in experiment [4], in [5] and in experiment [6] was above 100 µM throughout. The TGI in experiment [7] was above 100 µM.
For the molecule `O=C(CCCN1CCC(O)(c2ccc(Cl)cc2)CC1)c1ccc(F)cc1`, the TGI in experiment [1] was above 100 µM; in [2], 84.1 µM; in [3] it was 45.1 µM; in experiment [4], 45.2 µM; in experiment [5], above 100 µM; in experiment [6] it was 31.5 µM. In addition, the TGI in experiment [7] is 29.7 µM; in [8] it was above 100 µM.
Turning to `COc1ccc2c(c1)nc(C(=O)c1ccco1)c(C(F)(F)F)[n+]2[O-]`, the GI50 in experiment [9] is above 100 µM; in experiment [10], above 100 µM; in experiment [2] it was above 100 µM; in experiment [3] it was above 100 µM; in [4] it was above 100 µM; in experiment [5] it was 77.4 µM. In addition, the GI50 in [6], in experiment [7] and in experiment [8] was above 100 µM in each case. Besides, the TGI in experiment [9], in experiment [10], in [2], in experiment [3], in experiment [4] and in experiment [5] was above 100 µM throughout. Also, the TGI in experiment [6], in experiment [7] and in [8] was above 100 µM in each case.
In the case of `O=C1CC(c2cccc(F)c2)Nc2cc3c(cc21)OCO3` (configuration not stated), the GI50 was below 0.01 µM in [9]; 30.8 µM in experiment [1]; below 0.01 µM in [4]; below 0.01 µM in experiment [5]; below 0.01 µM in experiment [6]; below 0.01 µM in experiment [7]. In experiment [8], the GI50 is 0.0111 µM. Moreover, the TGI in [9] was below 0.01 µM; in experiment [1] it was above 100 µM; in [4] it was above 100 µM; in experiment [5], above 100 µM; in [6], above 100 µM; in experiment [7], below 0.01 µM. This molecule also gave a TGI in [8] above 100 µM.
Consider `COc1cc(/C=N/Nc2ncnc3c2cnn3-c2ccccc2)ccc1O`, for which the GI50 in experiment [9] is 21.6 µM; in [10], 11.7 µM; in [2], above 25 µM; in experiment [3], 12.9 µM; in [4], 7.18 µM; in [5] it was 5.24 µM. In addition, the GI50 in experiment [6] is above 15.5 µM; in [7] it was 12.6 µM; in experiment [8] it was 9.88 µM. For the same molecule, the TGI in [9], in experiment [10], in experiment [2], in [3], in experiment [4] and in experiment [5] was above 25 µM each time. In addition, the TGI in [6], in experiment [7] and in experiment [8] was above 25 µM throughout.
`Nc1nc([Se])c2ncn(C3OC(CO)C(O)C3O)c2n1` (configuration not stated): the GI50 was 17.9 µM in [9]; 4.49 µM in experiment [10]; 5.05 µM in [2]; 4.54 µM in experiment [3]; 17.4 µM in [4]; 24.8 µM in [5]. Also, the GI50 is 3.95 µM in [6], 25.2 µM in experiment [7] and 6.96 µM in experiment [8]. The TGI in experiment [9] was above 100 µM; in [10], above 100 µM; in experiment [2], above 100 µM; in experiment [3], 57.1 µM; in [4], 68.8 µM; in experiment [5], above 100 µM. In addition, the TGI in [6] is above 100 µM; in experiment [7], 89.6 µM; in experiment [8] it was above 100 µM.
In the case of `COc1ccc2c(c1)[nH]c(=O)c1c3cccc(F)c3cn21`, the GI50 was 0.143 µM in [9]; 0.0183 µM in experiment [10]; 0.21 µM in experiment [2]; 0.0442 µM in experiment [3]; 0.0295 µM in experiment [4]; 0.0345 µM in experiment [5]. The GI50 in experiment [6] was 0.0408 µM; in [7], 0.0449 µM; in [8] it was 0.0848 µM. In addition, the TGI was 0.822 µM in [9]; 0.0515 µM in experiment [10]; above 52.3 µM in experiment [2]; 11.7 µM in [3]; 0.0774 µM in experiment [4]; above 31.9 µM in experiment [5]. Further, the TGI in [7] was above 100 µM; in experiment [8], above 83.5 µM.
